The assay relates to 885512-296-R-J2-PDC complex spheroid growth, % test/control. The assay can be described thus: Anticancer human tumor 885512-296-R-J2-PDC patient-derived breast carcinoma cell line growth inhibition [Asc]. As to conditions: for viability, T/C: stronger effect = lower value. Here is the method: Multicellular complex tumor spheroid response to apoptosis pathway targeting inhibitors Alrizomadlin, Pelcitoclax, and Dasminapant in combination with a variety of drugs and investigational agents in selected tumor cell lines
The MDM2 inhibitor alrizomadlin, the Bcl-2/Bcl-xL inhibitor pelcitoclax, and the IAPs inhibitor dasminapant were evaluated both individually and in combination with standard of care and investigational anticancer small molecules within a complex spheroid model of solid tumors. . Complex spheroids include a stromal component modeled by human endothelial cells (HUVEC) and fibroblasts modeled by human mesenchymal stem cells (MSCs). The concentration ranges selected for each drug and investigational agent were based upon clinically achievable concentrations if the clinical Cmax of the agent was known.
Compounds. The drugs and investigational agents: alrizomadlin (APG-115; NSC831270), pelcitoclax (APG-1252; NSC835773), dasminapant (APG-1387;NSC834197), TAK-243 (NSC785004), copanlisib (NSC809693), olaparib (NSC753686), talazoparib (NSC767125), cobimetinib (NSC 768068), eltanexor (KPT-8602, NSC 794443), abemaciclib (NSC 768073), sotorasib (NSC818433), adagrasib (NSC 831453), MRTX-1133 (NSC 836407), Iadademestat (ORY1001, NSC 806812), and RMC-4630 (NSC839698), were obtained from the NCI Developmental Therapeutics Program Chemical Repository. The FDA-approved anticancer drug set is available from the Developmental Therapeutics Program at https://dtp.cancer.gov/organization/dscb/obtaining/available plates.htm. […] The stock solutions were prepared in dimethyl sulfoxide (DMSO, Sigma-Aldrich, St. Louis, MO, cat. D2650) at 800-fold the tested concentration and stored at -70 degrees C prior to their use. All drugs and investigational agents were tested over a range starting from a high concentration at or near the clinical Cmax and decreasing in half-log increments. If the clinical Cmax for an agent had not been determined, the highest concentration tested was 10 microM.
The patient-derived cancer (PDC) cell lines include five colon adenocarcinomas: 186277-243-T-J2-PDC, 616215-338-R-J1-PDC, 439559-082-T-J2-PDC, 463943-066-T-J2-PDC, and 519858-162-T-J1-PDC; three pancreatic carcinomas: 323965-272-R-J2-PDC, 521955-158-R6-J3-PDC, and 521955-158-R2-J5-PDC; two uterine sarcomas: 327498-152-R-J2-PDC and 993429-296-R-J1-PDC; two rhabdomyosarcomas: 755483-174-R-J1-PDC and 772245-204-R-J1-PDC; two soft tissue sarcomas: 126254-015-R-J1-PDC and 494315-158-R-J1-PDC; two malignant fibrous histiocytomas: 317291-083-R-J1-PDC and 596521-263-R-J1-PDC; two breast carcinomas: 171881-019-R-J1-PDC and 885512-296-R-J2-PDC; and one ovarian carcinoma: 6556581-035-R-J-PDC were obtained from the NCI PDMR, (https://pdmr.cancer.gov). The established cell lines HSSY-2 synovial sarcoma (RRID:CVCL 8719), SYO-1 synovial sarcoma (RRID:CVCL_7146), MPNST malignant peripheral neural sheath tumor were obtained from the Sloan Kettering Institute. The following established cell lines were purchased from the American Type Culture Collection (ATCC, Manassas, VA), Sor the received from the NCI repository:, PANC-1 pancreatic carcinoma (CRL-1469, RRID:CVCL_0480), OVCAR-5 ovarian carcinoma (RRID:CVCL_1628), OVCAR-8 ovarian carcinoma (RRID:CVCL_1629), , MCF-7 breast carcinoma (CRL-12584, RRID:CVCL_0031), MDA-MB-231 breast carcinoma (CRL-12532, RRID:CVCL_0062), NCI-H1876 small cell lung carcinoma (CRL-5902, RRID:CVCL_1503), NCI-H510A small cell lung carcinoma (HTB-184, RRID:CVCL_1565), NCI-H1417 (CRL-5869, RRID:CVCL_1469), and NCI-H196 small cell lung carcinoma (CRL-5823, RRID:CVCL_1509). Dr. Peter Houghton (Greehey Children's Cancer Research Institute, University of Texas Health Science Center, San Antonio, TX) provided Rh-18 rhabdomyosarcoma (RRID:CVCL_1659). Pooled donor human umbilical vein endothelial cells (HUVEC, Lonza, cat. CC-2519) and human mesenchymal stem cells (hMSC, Lonza, cat. PT-2501) were purchased from Lonza (Walkersville, MD).
Cell Culture. […]

Values joined by “and” are separate entries in the source; they are usually repeats but may differ in a detail not shown here. Equal entries are not always repeated. A value given as a limit tells only on which side of the number the result lay.

IC50 and viability, T/C data for two compounds are collected here from PubChem BioAssay AID1963447 (Molecular Pharmacology Branch, DTP, NCI, 2024).

Usually IC50 stands for the point on the concentration scale where inhibition reaches its midpoint. As a reminder, the viability, T/C is the ratio of treated to control.
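Further: spheroids exposed to compounds for seven days.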
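Wherever viability, T/C is given: 100% = DMSO vehicle control wells.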

In the case of `O=C(c1cc(Cc2n[nH]c(=O)c3ccccc23)ccc1F)N1CCN(C(=O)C2CC2)CC1` + CNC(C)C(=O)NC1CN(S(=O)(=O)c2cccc(S(=O)(=O)N3CCC4CCC(C(=O)NC(c5ccccc5)c5ccccc5)N4C(=O)C(NC(=O)C(C)NC)C3)c2)CCC2CCC(C(=O)NC(c3ccccc3)c3ccccc3)N2C1=O, the IC50 reads like this: (curve of first compound, second compound 0.01 µM) 4.11 µM; (curve of first compound, second compound 0.0316 µM) 2.96 µM; (curve of first compound, second compound 0.1 µM) 3.93 µM; (curve of first compound, second compound 0.316 µM) 3.85 µM; (curve of first compound, second compound 1 µM) 3.63 µM. Further, the viability, T/C was 95.6% (second compound 0.01 µM, first compound 0.0316 µM); 96.4% (second compound 0.01 µM, first compound 0.1 µM); 95.6% (second compound 0.01 µM, first compound 0.316 µM); 94.5% (second compound 0.01 µM, first compound 1 µM); 60.7% (second compound 0.01 µM, first compound 3.16 µM); 13.5% (second compound 0.01 µM, first compound 10 µM). The viability, T/C was 97.1% (second compound 0.0316 µM, first compound 0.0316 µM); 101% (second compound 0.0316 µM, first compound 0.1 µM); 99.6% (second compound 0.0316 µM, first compound 0.316 µM); 84% (second compound 0.0316 µM, first compound 1 µM); 48.2% (second compound 0.0316 µM, first compound 3.16 µM); 14.4% (second compound 0.0316 µM, first compound 10 µM). In addition, the viability, T/C is, setting by setting: (second compound 0.1 µM, first compound 0.0316 µM) 97.9%; (second compound 0.1 µM, first compound 0.1 µM) 98.2%; (second compound 0.1 µM, first compound 0.316 µM) 106%; (second compound 0.1 µM, first compound 1 µM) 86.2%; (second compound 0.1 µM, first compound 3.16 µM) 59.8%; (second compound 0.1 µM, first compound 10 µM) 10.6%. In addition, the viability, T/C was 101% (second compound 0.316 µM, first compound 0.0316 µM); 106% (second compound 0.316 µM, first compound 0.1 µM); 102% (second compound 0.316 µM, first compound 0.316 µM); 89.3% (second compound 0.316 µM, first compound 1 µM); 58.1% (second compound 0.316 µM, first compound 3.16 µM); 12% (second compound 0.316 µM, first compound 10 µM). Further, the viability, T/C by setting is: (second compound 1 µM, first compound 0.0316 µM) 96.1%; (second compound 1 µM, first compound 0.1 µM) 97.8%; (second compound 1 µM, first compound 0.316 µM) 95.4%; (second compound 1 µM, first compound 1 µM) 87.2%; (second compound 1 µM, first compound 3.16 µM) 55%; (second compound 1 µM, first compound 10 µM) 13.1%.
In the case of `CNC(C)C(=O)NC1CN(S(=O)(=O)c2cccc(S(=O)(=O)N3CCC4CCC(C(=O)NC(c5ccccc5)c5ccccc5)N4C(=O)C(NC(=O)C(C)NC)C3)c2)CCC2CCC(C(=O)NC(c3ccccc3)c3ccccc3)N2C1=O` (stereo not drawn), the viability, T/C (compound 0.00316 µM) was 84.1% and 81%. In addition, the IC50 by setting is: (compound alone, run of 10/03/2022) > 1 µM; (curve of compound) > 1 µM.
